Legend:
[1] = Excitation and fluorescence spectra in TRIS buffer (pH 7.0) in the presence of 100 mM NaCl; format: physicochemical; conditions: 2.5 μM, TRIS buffer pH 7.0, 100 mM NaCl, FIG. 3
Procedure: FIG. 3. The spectral comparison of SBFI and Compound 8. SBFI (2.5 μM) and Compound 8 (2.5 μM) are dissolved in TRIS buffer (pH 7.0). The excitation and fluorescence spectra are recorded in the presence of 100 mM NaCl. […] The strong and sharp fluorescence emission peak is a critical characteristic required for multicolor analysis.

[2] = Sodium ion response, fluorescence intensity with 60 mM NaCl (Fmax) or without NaCl (F0); conditions: 2.5 μM, Tris-HCl buffer pH 7, 60 mM NaCl (Fmax) vs no NaCl (F0), FIG. 5
Procedure: FIG. 5. Comparisons of Compound 8 and SBFI to sodium ion responses. SBFI (2.5 μM) and Compound 8 (2.5 μM) are added in Tris-HCl buffer (pH-7) with 60 mM NaCl (Fmax) or without NaCl (F0) and their fluorescence intensities are recorded. […] SBFI=Black column; Compound 8=Grey column.

[3] = Absorption spectra in TRIS buffer (pH 7.0) in the presence of 100 mM NaCl; format: physicochemical; conditions: 10 μM, TRIS buffer pH 7.0, 100 mM NaCl, FIG. 1
Procedure: FIG. 1. The absorption spectral comparison of SBFI and Compound 8. SBFI (10 μM) and Compound 8 (10 μM) are dissolved in TRIS buffer (pH 7.0). The absorption spectra are recorded in the presence of 100 mM NaCl. […] A longer absorption wavelength minimizes the background caused by naturally occurring biological substances.

[4] = Excitation and fluorescence spectra in TRIS buffer (pH 7.0) in the presence of 100 mM KCl; format: physicochemical; conditions: 2.5 μM, TRIS buffer pH 7.0, 100 mM KCl, FIG. 4
Procedure: FIG. 4. The spectral comparison of PBFI and Compound 12. PBFI (2.5 μM) and Compound 12 (2.5 μM) are dissolved in TRIS buffer (pH 7.0). The excitation and fluorescence spectra are recorded in the presence of 100 mM KCl. […] a critical characteristic required for multicolor analysis.

[5] = Potassium ion response, fluorescence intensity with 60 mM KCl (Fmax) or without KCl (F0); conditions: 2.5 μM, Tris-HCl buffer pH 7.0, 60 mM KCl (Fmax) vs no KCl (F0), FIG. 6
Procedure: FIG. 6. Comparisons of Compound 12 and PBFI to potassium ion responses. PBFI (2.5 μM) and Compound 12 (2.5 μM) are added in Tris-HCl buffer (pH 7.0) with 60 mM KCl (Fmax) or without KCl (F0) and their fluorescence intensities are recorded. […] PBFI=Black column; Compound 12=Grey column.

[6] = Absorption spectra in TRIS buffer (pH 7.0) in the presence of 100 mM KCl; format: physicochemical; conditions: 10 μM, TRIS buffer pH 7.0, 100 mM KCl, FIG. 2
Procedure: FIG. 2. The absorption spectral comparison of PBFI and Compound 12. PBFI (10 μM) and Compound 12 (10 μM) are dissolved in TRIS buffer (pH 7.0). The absorption spectra are recorded in the presence of 100 mM KCl. […] A longer absorption wavelength minimizes the background caused by naturally occurring biological substances.

COc1ccccc1N1CCOCCOCCN(c2cc(C(=O)O)c(-c3c4cc(F)c(=O)cc-4oc4cc(O)c(F)cc34)cc2OC)CCOCC1 [Compound 8]
fluorescence emission peak compared with SBFI [1]: much stronger and sharper fluorescence emission peak | sodium ion response compared with SBFI [2]: much stronger sodium ion response than SBFI | absorption wavelength compared with SBFI [3]: much longer absorption wavelength than SBFI

COc1ccccc1N1CCOCCOCCN(c2cc(C(=O)O)c(-c3c4cc(F)c(=O)cc-4oc4cc(O)c(F)cc34)cc2OC)CCOCCOCC1 [Compound 12]
fluorescence emission compared with PBFI [4]: much stronger and sharper | potassium ion response compared with PBFI [5]: much stronger potassium ion response than PBFI | absorption wavelength compared with PBFI [6]: much longer absorption wavelength than PBFI
